The source of these data is patent US12129221B2, “Difluoro phenyl amide RIP1 inhibitor” (SIRONAX LTD, priority 2018, dated 2024).

Tested on in one series: not listed separately
Nature of the series: Prodrug enhanced metabolic stability: hepatocyte (H). The format is in vitro ADME.
Conditions: not given
Also on record: key: +, Extrapolated. The text has this: (§1) Prodrug Enhanced Metabolic Stability: Liver Microsome (L), Hepatocyte (H) and PK
For the compound `CC(C)(C(=O)N(O)Cc1cc(F)cc(F)c1)C(F)F` [Compound 75, N-(3,5-difluorobenzyl)-3,3-difluoro-N-hydroxy-2,2-dimethylpropanamide], the H result is on record as “+”.
Still for that read-out and setting: with `CC(C)(C(=O)N(O)Cc1ccccc1)C(F)F` [Compound 74, N-benzyl-3,3-difluoro-N-hydroxy-2,2-dimethylpropanamide] the entry was “+”; with `CC(C)(CCF)C(=O)N(O)Cc1cc(F)cc(F)c1` [Compound 76, N-(3,5-difluorobenzyl)-4-fluoro-N-hydroxy-2,2-dimethylbutanamide], “+”; with `CCC(C)(C)C(=O)N(Cc1ccccc1)OCOP(=O)(OCc1ccccc1)OCc1ccccc1` [Compound 69, dibenzyl (((N-benzyl-2,2-dimethylbutanamido)oxy)methyl) phosphate], “+”.

Tested on in a further series: not listed separately
Nature of the series: PK in mouse. Conditions: in vivo, IV 2 mg/kg.
As usually defined, the AUC(0-inf) is total exposure, with the tail of the curve extrapolated. By clearance is commonly meant a measure of how efficiently the substance is removed, as volume per time. Regarding `CCC(C)(C)C(=O)N(O)Cc1ccc(F)cc1` [SIR1-181], the AUC(0-inf) was 522 ng·h/mL, the clearance was 63.7 mL/min/kg and the half-life was 35.7 min.

Still in this series, the particulars now being: in vivo, IV 2 mg/kg, read-out: Vdss.
As for `CCC(C)(C)C(=O)N(O)Cc1ccc(F)cc1` [SIR1-181], the Vd came out at 3.28 L/kg.

Staying with this series, now noted: in vivo, PO 10 mg/kg.
Broadly, the Cmax is the highest concentration seen after dosing. Broadly, the bioavailability is the share of a dose that reaches the circulation, judged against a reference dose that is usually intravenous. `CCC(C)(C)C(=O)N(O)Cc1ccc(F)cc1` [SIR1-181] showed an AUC(0-inf) of 1740 ng·h/mL, a Cmax of 2850 ng/mL, a bioavailability of 66.6% and a half-life of 30.8 min.

Tested on in another series: not listed separately
As to the kind of experiment: Prodrug enhanced metabolic stability: liver microsome (L).
Conditions: not given
The arrangement: key: +, Extrapolated. The format is in vitro ADME.
Source text: as §1
A general note: Liver microsomes are a subcellular fraction often used to study metabolism.
For `CC(C)(C(=O)N(O)Cc1cc(F)cc(F)c1)C(F)F` [Compound 75, N-(3,5-difluorobenzyl)-3,3-difluoro-N-hydroxy-2,2-dimethylpropanamide], the L entry is “+”.
The same measure, in the same setting: the result for `CC(C)(C(=O)N(O)Cc1ccccc1)C(F)F` [Compound 74, N-benzyl-3,3-difluoro-N-hydroxy-2,2-dimethylpropanamide] reads “+”; that for `CC(C)(CCF)C(=O)N(O)Cc1cc(F)cc(F)c1` [Compound 76, N-(3,5-difluorobenzyl)-4-fluoro-N-hydroxy-2,2-dimethylbutanamide], “+”.
On the same count and under the same terms, with `CCC(C)(C)C(=O)N(Cc1ccccc1)OCOP(=O)(OCc1ccccc1)OCc1ccccc1` [Compound 69, dibenzyl (((N-benzyl-2,2-dimethylbutanamido)oxy)methyl) phosphate] the entry was “+”.

Tested on in another series: not listed separately
Nature of the series: Liver microsome stability, rat. The format is in vitro ADME. The settings on record: liver microsomes, comparison table with WO2016/101885 compounds, read-out: Rat Liver Microsome T1/2. An excerpt: (§2) Representative Metabolic Stability Data I; +, Extrapolated.
Turning to `CCC(C)(C)C(=O)N(O)Cc1ccc(F)cc1` [SIR1-181], the half-life came out at 37 min.
`CCC(C)(C)C(=O)N(O)Cc1ccc(F)c(F)c1` [SIR1-180]: the half-life was determined as 29 min.
For `CCC(C)(C)C(=O)N(O)Cc1ccc(F)cc1F` [SIR1-179], the half-life was 28 min.
In the case of `CCC(C)(C)C(=O)N(O)Cc1cc(F)c(F)c(F)c1` [SIR1-186], the half-life turned out to be 21 min.
On the same count and under the same terms, with `CCC(C)(C)C(=O)N(O)Cc1ccc(F)c(F)c1F` [SIR1-184] the figure was 19 min; with `CCC(C)(C)C(=O)N(O)Cc1cc(F)cc(F)c1F` [SIR1-176], 22 min.

Tested on in the next series: not listed separately
As to the kind of experiment: PK in dog. The settings on record: in vivo, IV 5 mg/kg.
For the compound `CCC(C)(C)C(=O)N(O)Cc1ccc(F)cc1` [SIR1-181], the AUC(0-inf) is 3210 ng·h/mL, the clearance was determined as 25.9 mL/min/kg and the half-life is 120 min.

The series is the same for the next values; noted with them: in vivo, IV 5 mg/kg, read-out: Vdss.
As for `CCC(C)(C)C(=O)N(O)Cc1ccc(F)cc1` [SIR1-181], the Vd came to 1.8 L/kg.

Staying with this series, now noted: in vivo, PO 10 mg/kg.
As for `CCC(C)(C)C(=O)N(O)Cc1ccc(F)cc1` [SIR1-181], the AUC(0-inf) is 148 ng·h/mL, the peak level (Cmax) was 195 ng/mL, the bioavailability was 2.5% and the half-life is 276 min.

The subject of a further series is ferroptosis. Nature of the series: Ferroptosis inhibitor activity. Format: cell-based. The settings on record: 1 uM threshold activity extrapolated. The text has this:
Ferroptosis Inhibitor Activity 1 Um Threshold Activity Extrapolated
What is called EC50 is the concentration giving half of the maximal effect. Take `CC(C)(C(=O)N(O)Cc1cc(F)cc(F)c1)C(F)F` [Compound 75, N-(3,5-difluorobenzyl)-3,3-difluoro-N-hydroxy-2,2-dimethylpropanamide]: the EC50 is 1000 to 10000 nM.
Still for that read-out and setting: the result for `CC(C)(C(=O)N(O)Cc1ccccc1)C(F)F` [Compound 74, N-benzyl-3,3-difluoro-N-hydroxy-2,2-dimethylpropanamide] reads 1000 to 10000 nM; that for `CC(C)(CCF)C(=O)N(O)Cc1cc(F)cc(F)c1` [Compound 76, N-(3,5-difluorobenzyl)-4-fluoro-N-hydroxy-2,2-dimethylbutanamide], 1000 to 10000 nM.

In another series the test system is HT-29. As to the kind of experiment: EC50 in HT-29. Format: cell-based. The settings on record: Homo sapiens.
`CCC(C)(C)C(=O)N(O)Cc1ccc(F)cc1` [SIR1-181]: the EC50 is 64 nM.
On to `CCC(C)(C)C(=O)N(O)Cc1ccc(F)c(F)c1` [SIR1-180], for which the EC50 was found to be 55 nM.
The same measure, in the same setting: the result for `CCC(C)(C)C(=O)N(O)Cc1ccc(F)cc1F` [SIR1-179] reads 197 nM; that for `CCC(C)(C)C(=O)N(O)Cc1cc(F)c(F)c(F)c1` [SIR1-186], 46 nM.
`CCC(C)(C)C(=O)N(O)Cc1ccc(F)c(F)c1F` [SIR1-184] showed an EC50 of 272 nM.
Consider `CCC(C)(C)C(=O)N(O)Cc1cc(F)cc(F)c1F` [SIR1-176], for which a half-maximal effect (EC50) was put at 65 nM.

Tested on in another series: not listed separately
Nature of the series: PK in rat. The settings on record: Sprague-Dawley, in vivo; Rat, PO 10 mg/kg. The arrangement: species or system SD rat. An excerpt:
Representative PK Date of Pro-Drug Compounds
`CCC(C)(C)C(=O)N(O)Cc1ccc(F)cc1` [SIR1-181] gave an AUC(0-inf) of 24.3 ng·h/mL and a Cmax of 32.3 ng/mL.

Still in this series, the particulars now being: Sprague-Dawley, rat, in vivo, po, 10 mg/kg, PO 10 mg/kg.
`CCC(C)(C)C(=O)N(O)Cc1ccc(F)cc1` [SIR1-181] gave a half-life of 32.5 min.

Tested on in the next series: not listed separately
As to the kind of experiment: Liver microsome stability, mouse. Format: in vitro ADME. The settings on record: liver microsomes, comparison table with WO2016/101885 compounds, read-out: Mouse Liver Microsome T1/2.
Source text: as §2
For `CCC(C)(C)C(=O)N(O)Cc1ccc(F)cc1` [SIR1-181], the half-life worked out at 24 min.
Regarding `CCC(C)(C)C(=O)N(O)Cc1ccc(F)c(F)c1` [SIR1-180], the half-life worked out at 11 min.
Same read-out and setting: with `CCC(C)(C)C(=O)N(O)Cc1ccc(F)cc1F` [SIR1-179] the figure was 23 min.
On the same count and under the same terms, with `CCC(C)(C)C(=O)N(O)Cc1cc(F)c(F)c(F)c1` [SIR1-186] the figure was 6 min; with `CCC(C)(C)C(=O)N(O)Cc1ccc(F)c(F)c1F` [SIR1-184], 12 min; with `CCC(C)(C)C(=O)N(O)Cc1cc(F)cc(F)c1F` [SIR1-176], 9 min.

Tested on in the next series: not listed separately
As to the kind of experiment: Liver microsome stability, human. The format is in vitro ADME. Conditions: liver microsomes, comparison table with WO2016/101885 compounds, read-out: Human Liver Microsome T1/2.
Source text: as §2
With `CCC(C)(C)C(=O)N(O)Cc1ccc(F)cc1` [SIR1-181], the half-life is 178 min.
Consider `CCC(C)(C)C(=O)N(O)Cc1ccc(F)c(F)c1` [SIR1-180], for which the half-life was 107 min.
Still for that read-out and setting: with `CCC(C)(C)C(=O)N(O)Cc1ccc(F)cc1F` [SIR1-179] the figure was 198 min.
On the same count and under the same terms, with `CCC(C)(C)C(=O)N(O)Cc1cc(F)c(F)c(F)c1` [SIR1-186] the figure was 64 min; with `CCC(C)(C)C(=O)N(O)Cc1ccc(F)c(F)c1F` [SIR1-184], 36 min; with `CCC(C)(C)C(=O)N(O)Cc1cc(F)cc(F)c1F` [SIR1-176], 67 min.

In the next series the test system is necrosis. Nature of the series: Necrosis inhibitory activity (cell necrosis / cell viability assay). Format: cell-based. Conditions: Active Pro-drugs. The text has this:
Necrosis Inhibitory Activity
Representative IC50 of hRIP1 Kinase Assay Correlated with Our IC50 of Cell Necrosis Assay: […]
As to `CCC(C)(C)C(=O)N(Cc1ccccc1)OCOP(=O)(OCc1ccccc1)OCc1ccccc1` [Compound 69, dibenzyl (((N-benzyl-2,2-dimethylbutanamido)oxy)methyl) phosphate], the “EC50(nM)” value is given as “weak”.

The same series, now with this note: Necrosis Inhibitory Activity, given as range; read-out: EC50.
As for `CC(C)(C(=O)N(O)Cc1cc(F)cc(F)c1)C(F)F` [Compound 75, N-(3,5-difluorobenzyl)-3,3-difluoro-N-hydroxy-2,2-dimethylpropanamide], the EC50 is 1 to 1000 nM.
As for `CC(C)(C(=O)N(O)Cc1ccccc1)C(F)F` [Compound 74, N-benzyl-3,3-difluoro-N-hydroxy-2,2-dimethylpropanamide], the EC50 is 1 to 1000 nM.
On to `CC(C)(CCF)C(=O)N(O)Cc1cc(F)cc(F)c1` [Compound 76, N-(3,5-difluorobenzyl)-4-fluoro-N-hydroxy-2,2-dimethylbutanamide], for which the EC50 lay within 1000 to 10000 nM.

Tested on in the next series: not listed separately
As to the kind of experiment: Prodrug enhanced metabolic stability: PK.
Conditions: not given
The arrangement: key: +, Extrapolated. Format: in vivo.
Source text: as §1
Regarding `CC(C)(C(=O)N(O)Cc1cc(F)cc(F)c1)C(F)F` [Compound 75, N-(3,5-difluorobenzyl)-3,3-difluoro-N-hydroxy-2,2-dimethylpropanamide], the PK entry is “+”.
On the same count and under the same terms, the result for `CC(C)(C(=O)N(O)Cc1ccccc1)C(F)F` [Compound 74, N-benzyl-3,3-difluoro-N-hydroxy-2,2-dimethylpropanamide] reads “+”; that for `CC(C)(CCF)C(=O)N(O)Cc1cc(F)cc(F)c1` [Compound 76, N-(3,5-difluorobenzyl)-4-fluoro-N-hydroxy-2,2-dimethylbutanamide], “+”; that for `CCC(C)(C)C(=O)N(Cc1ccccc1)OCOP(=O)(OCc1ccccc1)OCc1ccccc1` [Compound 69, dibenzyl (((N-benzyl-2,2-dimethylbutanamido)oxy)methyl) phosphate], “+”.
